Laboratory results as given in PMC4049391, “Cadmium exposure and sulfate limitation reveal differences in the transcriptional control of three sulfate transporter (Sultr1;2) genes in Brassica juncea” (BMC Plant Biology, 2014).

Target: T1, AtSultr2;1 (Arabidopsis thaliana, UniProt O04722)
T1 construct: gene SULTR2; full-length ORF from Arabidopsis root RNA in pESC-TRP (GAL10 promoter), expressed in Saccharomyces cerevisiae CP154-7A
T1 sequence (O04722 1-677): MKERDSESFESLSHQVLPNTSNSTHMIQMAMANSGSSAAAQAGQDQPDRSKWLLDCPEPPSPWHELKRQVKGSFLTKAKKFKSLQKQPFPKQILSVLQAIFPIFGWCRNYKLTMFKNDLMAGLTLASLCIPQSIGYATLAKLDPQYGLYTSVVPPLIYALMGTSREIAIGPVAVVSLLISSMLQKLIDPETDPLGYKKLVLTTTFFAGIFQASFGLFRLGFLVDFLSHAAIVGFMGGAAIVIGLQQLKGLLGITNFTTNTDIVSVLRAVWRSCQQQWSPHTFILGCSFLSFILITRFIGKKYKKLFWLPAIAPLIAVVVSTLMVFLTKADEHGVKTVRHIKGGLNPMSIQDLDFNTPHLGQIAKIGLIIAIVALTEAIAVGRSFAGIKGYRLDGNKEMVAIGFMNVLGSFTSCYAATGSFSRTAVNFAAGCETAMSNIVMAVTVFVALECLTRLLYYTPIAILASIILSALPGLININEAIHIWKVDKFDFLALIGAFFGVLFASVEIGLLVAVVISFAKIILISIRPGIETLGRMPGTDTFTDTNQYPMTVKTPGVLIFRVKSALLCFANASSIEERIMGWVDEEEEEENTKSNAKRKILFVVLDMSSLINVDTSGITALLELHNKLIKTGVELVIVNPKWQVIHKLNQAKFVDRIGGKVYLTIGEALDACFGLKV
Test: growth rate of complemented yeast versus sulfate, Michaelis-Menten fit
Type: cell-based
Conditions: growth constant as estimate of apparent Km; sulfate 0-3 mM as sole sulfur source, 28°C; yeast CP154-7A

## O=S(=O)(O)O [sulfate]
  kG: Estimation of the growth constant (kG) for sulfate
